Results on 15 molecules are retold here after patent US9957226B2, “Antimicrobial compounds” (AKTHELIA PHARMACEUTICALS, priority 2013, dated 2018).

The subject of series [1] is CAMP gene. The series is described as follows: Fold induction assay in the MN8CampLuc reporter cell line (luciferase coupled to CAMP gene). It is filed as cell-based, human. To be noted: for Fold induction (as luciferase activity): cells pre-differentiated by treatment with galactose, FIG. 4 and FIG. 5. How it is done:
MN8CampLuc cells were handled according to Nylen et. al. with the following exception when predifferention of cells were performed before induction: […]

Series [2] has as its system histone deacetylases. To be noted: average of assays reported in PubChem, FIG. 4 right panel; cited from earlier work.
For series [3], the system named is autophagy-related genes Beclin-1 and AtgS. The series is described as follows: RT-PCR of autophagy marker genes in HEK-293 cells. Type of series: cell-based. To be noted: for Expression of autophagy-related genes Beclin-1 and AtgS: 24 hrs, PBA 2 mM, compound 5 10 μM, Rapamycin 100 nM, FIG. 9 upper panel. The protocol:
(§1) RT-PCR experiments for expression of marker genes for autophagy in HEK-293 cells were measured by real-time PCR. Data were normalized by the expression of the 18s rRNA housekeeping gene. For the immunofluorescence spectroscopy experiments HEK-293 cells were fixed after treatment with the inducers or control. The cells were then stained with DAPI to visualize the nuclei (blue), and immunolabeled with the anti-LC3, followed by the addition of Alexa-fluor 488 (green). Scale bar=10 μm.

Series [4] deals with CAMP gene. The series is described as follows: RT-PCR of CAMP gene expression in parental HT-29 cell line. It is filed as cell-based, human. The protocol:
RT-PCR experiments were performed according to Nylen et. al. (Nylén F, Miraglia E, Cederlund A, Ottosson H, Stromberg R, Gudmundsson G H, Agerberth B. 2013. Boosting innate immunity: Development and validation of a cell-based screening assay to identify LL-37 inducers. Innate Immun.).

Series [5] relates to LC3. Briefly: Immunofluorescence of LC3 in HEK-293 cells. As to conditions: 10 μM, 24 hrs, FIG. 9 lower panel. It is filed as cell-based. The protocol:
as §1

The mark [6] stands for this setting: MN8CampLuc reporter cell line, FIG. 2.
[7] abbreviates: MN8CampLuc reporter cell line, FIG. 6.

“Also recorded” adds a separate entry of the source. Read-outs that look alike come from different tables or passages of the source.

On to `O=C(Nc1ccccc1O)c1ccccc1` [Compound 14, N-(2-Hydroxyphenyl) benzamide], for which the “Fold induction of the CAMP gene (LL-37-luciferase)” value (“Fold induction … (LL-37-luciferase)” below) in series [1] (setting [6]) is reported as “virtually no induction; also recorded: complete or significant loss of the induction ability”.
Take `CC(/C=C/C(=O)NO)=C\[C@@H](C)C(=O)c1ccc(N(C)C)cc1` [Compound 19, Trichostatin A]: the “HDAC inhibition (known IC50 values) compared with compound 5” value in series [2] was “considerably more powerful HDAC inhibitors”. In addition, the “Fold induction (as luciferase activity)” value in series [1] (MN8CampLuc) was “much less fold induction than compound 5”.
As for `Nc1ccccc1NC(=O)c1ccccc1` [Compound 1, N-(2-Aminophenyl)benzamide], the “Concentration required for induction” value in series [1] (MN8CampLuc, FIG. 2) was “slightly higher concentration”.
With `COc1ccc(C(=O)NCCN)cc1` [Compound 18, N-(2-aminoethyl)-4-methoxybenzamide], the “Fold induction (as luciferase activity)” value in series [1] (MN8CampLuc) is given as “abolition of induction; also recorded: complete or significant loss of the induction ability”.
As to `O=C(NCc1ccc(C(=O)O)cc1)OCc1cccnc1` [Compound 11, 4-((((pyridin-3-ylmethoxy)carbonyl)amino)methyl)benzoic acid], the “Fold induction … (LL-37-luciferase)” value in series [1] (setting [6]) is “virtually no induction; also recorded: complete inactivity”.
Same read-out and setting: in the case of `COc1ccccc1NC(=O)c1ccccc1` [Compound 15, N-(2-methoxyphenyl)benzamide] it was “virtually no induction; also recorded: complete or significant loss of the induction ability”.
For the molecule `CN(C)c1ccc(NC(=O)CCCC(=O)Nc2ccccc2N)cc1` [Compound 9, N^1-(2-aminophenyl)-N^5-(4-(dimethylamino)-phenyl)glutaramide], in series [1] (setting [6]), the “Fold induction … (LL-37-luciferase)” value is “at a cost of inducing ability”.
`Nc1ccccc1NC(=O)c1ccc(CNC(=O)OCc2ccccc2)cc1` [Compound 4, Benzyl (4-((2-aminophenyl)carbamoyl)-benzyl)carbamate]: the “Concentration required for induction” value in series [1] (MN8CampLuc, FIG. 2) is “slightly higher concentration”.
For the molecule Phenylbutyrate [Compound 13], the “Expression of autophagy-related genes Beclin-1 and AtgS” value in series [3] is on record as “increased expression”. The “Fold induction … (LL-37-luciferase)” value in series [1] is “considerably lower induction”. Further, in series [4] (HT-29 cells, FIG. 8), the “CAMP gene expression (mRNA), course over time” value was “gradual increase of the CAMP gene expression”.
Turning to `COc1ccc(C(=O)Nc2ccccc2N)cc1` [Compound 2, N-(2-Aminophenyl)-4-methoxybenzamide], the “Concentration required for induction” value in series [1] (MN8CampLuc, FIG. 2) is “slightly higher concentration”.
The same measure, in the same setting: next, `COC(=O)Cn1cc(C(=O)NCc2ccc(C(=O)Nc3ccccc3N)cc2)nn1` [Compound 6, Methyl 2-(4-((4-((2-aminophenyl)carbamoyl)benzyl)carbamoyl)-1 H-1,2,3-triazol-1-yl)acetate]: “slightly higher concentration”.
In the case of `O=C(CCCCCCC(=O)Nc1ccccc1)NO` [Compound 12, N1-hydroxy-N8-phenyloctanediamide], the “Fold induction (as luciferase activity)” value in series [1] (MN8CampLuc) is recorded as “much less fold induction than compound 5”. Further, the “Fold induction of the CAMP gene” value in series [1] (MN8CampLuc, with and without pre-differentiation of cells by galactose, FIG. 3) is listed as “little induction; also recorded: poor inducer”.
Take `COc1ccc(CNc2ccccc2N)cc1` [Compound 16, N-(4-Methoxybenzyl)-1,2-benzenediamine]: in series [1] (MN8CampLuc), the “Fold induction (as luciferase activity)” value is on record as “at a cost of inducing ability”.
On the same count and under the same terms, next, `NCCNC(=O)c1ccccc1` [Compound 17, N-(2-aminoethyl)-benzamide]: “abolition of induction; also recorded: complete or significant loss of the induction ability”.
Regarding `Nc1ccccc1NC(=O)c1ccc(CNC(=O)OCc2cccnc2)cc1` [Compound 5, Pyridin-3-ylmethyl (4-((2-aminophenyl)-carbamoyl)benzyl)carbamate], the “LC3 expression in its membrane form (LC3-II)” value in series [5] is recorded as “upregulate”. Also, in series [3], the “Expression of autophagy-related genes Beclin-1 and AtgS” value is reported as “increased expression”. Besides, in series [3] (listed as Entinostat), the “Expression of autophagy-related genes Beclin-1 and AtgS” value is given as “upregulate the expression”. Besides, in series [3] (marker genes and LC-3, FIG. 9), the Autophagy result was “induce autophagy; also recorded: stimulates autophagy”. Further, in series [1] (setting [7]), the “Induction in combination with VitD” value is recorded as “synergistic effect; also recorded: Synergism with Vitamin D” and the “Induction on co-incubation with PBA (13)” value is recorded as “reduces entinostat-elicited induction”. In addition, the “Inducing concentration lower than that of PBA” value in series [1] (MN8CampLuc, 0.625-5 μM vs PBA 2-4 mM) was “about 3 orders of magnitude”. Moreover, in series [1] (MN8CampLuc, FIG. 2), the “Concentration required for induction” value is “lowest concentration; also recorded: effective already at μM concentrations”. For the same molecule, the “Induction compared with PBA (13) at 2-4 mM” value in series [1] (MN8CampLuc, compound 5 at 0.625-5 μM, FIG. 2) was “considerably higher”. In series [4] (HT29 parental cells, FIG. 7), the “Induction of the CAMP gene at mRNA level (RT-PCR)” value is listed as “induces the CAMP gene; also recorded: enhanced transcription of the CAMP gene” and the “Induction of the CAMP gene at mRNA level in combination with Vitamin D” value was “synergy with Vitamin D; also recorded: synergism with Vitamin D”. In series [4] (HT-29 cells, 4 and 8 h, FIG. 8), the “CAMP gene expression (mRNA), time course” value is given as “did not induce”. Besides, in series [4] (HT-29 cells, 24 and 48 h, FIG. 8), the “CAMP gene expression (mRNA), time course” value was “induction was prominent”.
